Measured values published in patent US20260159499A1, “COMPOUND AS FAK INHIBITOR AND USE THEREOF” (WIGEN BIOMEDICINE TECHNOLOGY (SHANGHAI) CO., LTD., priority 2021, published 2026).
Like-named read-outs stand apart in the source and are kept apart here.

What was measured:
[1] = system: PC3 cells; experiment: PC3 cell proliferation, 3D activity detection; format: cell-based, human; settings: Homo sapiens, PC-3, 336 h, PC3, 3D culture, 14 days, read-out: 3D IC50 against PC3 cells
Experimental: 3D activity detection: PC3 cells were seeded in a 96-well plate at 1200 cells/well, and 3D culture was performed. 14 days after the compound serially diluted was added, the growth of the cells was determined. The inhibition percentage and IC50 of the compound were calculated compared to the DMSO control group.

[2] = system: PC3 cells; experiment: PC3 cell proliferation, 2D activity detection; format: cell-based, human; settings: Homo sapiens, PC-3, PC3, 2D, 72 h, read-out: 2D IC50 against PC3 cells
Experimental: 2D activity detection: 1200 PC3 cells were seeded in a 96-well plate. After overnight adherence culture, the compound serially diluted was added. 72 h after addition, Cell Titer-Lumi (Beyotime C0068XL) was added to measure the ATP content in the cells. The growth of the cells was evaluated, and IC50 of the compounds against cell growth was calculated.

[3] = system: PC3 cells; experiment: Inhibition of PC3 cell adherence; format: cell-based; settings: Homo sapiens, PC-3; PC3, 4 h treatment; read-out: Inhibitory activity against PC-3 cell adherence IC50
Experimental: PC3 cells were added at 8000 cells/well. 4 h after the cells were treated with the compound, the number of adherent cells was counted. The inhibition percentages and IC50 of the compounds were calculated compared to the DMSO group.

[4] = molecular target: FAK recombinant protein (Homo sapiens, UniProt Q05397); experiment: Inhibitory activity against FAK enzyme; format: biochemical; settings: TK substrate, ATP
FAK recombinant protein, sequence (Q05397 whole entry, species assumed): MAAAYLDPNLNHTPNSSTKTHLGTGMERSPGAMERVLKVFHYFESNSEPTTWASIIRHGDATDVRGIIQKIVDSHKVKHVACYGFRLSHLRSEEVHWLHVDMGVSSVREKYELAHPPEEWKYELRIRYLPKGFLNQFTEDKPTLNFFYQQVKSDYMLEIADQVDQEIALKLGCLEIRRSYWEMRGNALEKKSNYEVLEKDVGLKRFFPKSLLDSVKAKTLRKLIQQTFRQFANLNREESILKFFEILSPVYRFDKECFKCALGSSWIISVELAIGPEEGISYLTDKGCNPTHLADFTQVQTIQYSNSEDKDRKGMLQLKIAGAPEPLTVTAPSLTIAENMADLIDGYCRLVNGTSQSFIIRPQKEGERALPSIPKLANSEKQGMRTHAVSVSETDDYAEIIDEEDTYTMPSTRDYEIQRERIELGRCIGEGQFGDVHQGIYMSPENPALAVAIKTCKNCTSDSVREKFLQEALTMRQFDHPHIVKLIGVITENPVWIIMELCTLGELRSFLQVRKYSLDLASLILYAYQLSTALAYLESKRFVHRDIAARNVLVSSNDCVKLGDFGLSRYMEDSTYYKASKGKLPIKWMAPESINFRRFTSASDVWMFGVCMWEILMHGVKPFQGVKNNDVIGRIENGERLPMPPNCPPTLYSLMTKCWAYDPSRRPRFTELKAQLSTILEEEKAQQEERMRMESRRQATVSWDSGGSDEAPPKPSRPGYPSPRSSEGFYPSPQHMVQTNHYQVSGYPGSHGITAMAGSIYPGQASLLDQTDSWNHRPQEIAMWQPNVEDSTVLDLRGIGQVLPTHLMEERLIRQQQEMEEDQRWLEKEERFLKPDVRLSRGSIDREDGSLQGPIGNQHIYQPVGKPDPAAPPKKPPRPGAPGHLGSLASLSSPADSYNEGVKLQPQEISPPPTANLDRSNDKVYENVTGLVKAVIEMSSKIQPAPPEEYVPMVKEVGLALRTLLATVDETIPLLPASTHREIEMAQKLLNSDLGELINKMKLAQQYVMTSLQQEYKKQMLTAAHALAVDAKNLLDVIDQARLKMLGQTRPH
Experimental: The compound serially diluted with DMSO and a FAK recombinant protein were mixed, and the mixture was left to stand at room temperature for 10 min. A biotin-labeled TK substrate (TK) and ATP were then added. […] After the mixture was incubated at room temperature for 1 h, the fluorescence intensity at 615 nm and 665 nm was measured. The ratio of the fluorescence intensity at 665 nm and 615 nm was calculated. The inhibition percentages and IC50 of the compounds were calculated compared to the DMSO control group.

[5] = system: Human prostatic cancer PC3 cells; experiment: In vivo efficacy test in PC-3 model; parameters: species or system BALB/c nude mice; settings: 25 mg/kg, PO, QD (21 days)
Experimental: Female BALB/c nude mice (aged 6 weeks, 18-22 g) were provided by Vital River Laboratory Animal Technology Co., Ltd. (China) and used one week after quarantine and acclimation. All animals were kept in a room at 23±2° C. with a relative humidity of 50±5%, artificial lighting was provided from 08:00 to 20:00 every day, and the air was exchanged 13-18 times per hour.
After being subcultured, the cells were collected when they reached the desired amount. 1×10^7 PC3 cells were injected into the left dorsal side of each nude mouse, and the animals were randomly grouped for administration after tumors grew to 100-200 mm^3. The mice in the solvent control group were intragastrically administered 0.5% MC-Tween-80 twice a day; the mice in the compound groups were intragastrically administered 0.5% MC-Tween-80 suspension once a day. On Tuesday and Thursday each week, tumor volumes and body weight of the mice were measured, and the nude mice were sacrificed on day 21 after the administration.
(§1) The toxicity of the compounds was evaluated according to the body weight of the mice.

[6] = system: Human pancreatic cancer Mia PaCa-2 cells; experiment: In vivo efficacy test in MiaPaCa-2 model; settings: 25 mg/kg, PO, QD (21 days)
Experimental: After being subcultured, the cells were collected when they reached the desired amount. 1×10^7 Mia PaCa-2 cells were injected into the left dorsal side of each nude mouse, and the animals were randomly grouped for administration after tumors grew to 100-200 mm^3. The mice in the solvent control group were intragastrically administered 0.5% MC-Tween-80 twice a day; the mice in the compound groups were intragastrically administered 0.5% MC-Tween-80 suspension once a day. On Tuesday and Thursday each week, tumor volumes and body weight of the mice were measured, and the nude mice were sacrificed on day 21 after the administration.
as §1

[7] = In vivo pharmacokinetic experiment in mice; parameters: species or system CD-1 female mice; settings: CD-1 mice; for AUC(0-t) / clearance / half-life / Vd / Cmax / Tmax / bioavailability: female, mouse, plasma; for Vd: read-out: Vdss; for bioavailability: oral administration 10 mg/kg vs injection
Experimental: On the day of the experiment, animals in the intravenous group were administered the corresponding compound by single injection via the tail vein at an administration volume of 10 mL/kg, and animals in the oral group were administered the corresponding compound by single intragastric injection at an administration volume of 10 mL/kg. The animals were weighed before administration, and the administration volume was calculated according to the body weight. […] About 200 μL of whole blood was collected through the orbital venous plexus at each time point and used to prepare plasma for concentration determination by high-performance liquid chromatography-tandem mass spectrometry (LC-MS/MS). The plasma concentrations were processed using a non-compartmental model of Winnolin pharmacokinetic software, and the pharmacokinetic parameters were calculated using a linear-log trapezoidal method.

[8] = system: Mouse colon cancer MC38 cells; experiment: In vivo efficacy experiment in MC38 model; parameters: species or system BALB/c mice; settings: single drug 50 mg/kg, PO, QD (21 days)
Experimental: The BALB/c mice were subcutaneously injected with 1×10^6 MC38 cells on the right side to form tumors. […] The administration was then started. Tumor volumes were measured with a caliper on day 3, day 7, day 10, day 14, day 17 and day 21 after the administration.

[9] = injection (IV) 1 mg/kg (footnote)

IC50 ([1]; class symbol) | IC50 ([2]; class symbol) | IC50 [3] | IC50 [4] | IC50 ([1]; numeric (mean where marked *)) | SMILES | further results
> 50 nM | > 2000 nM | 7.01 nM | < 10 nM | – | COc1cc(N2CC3(CCN(C)C3)OCC2=O)c(F)cc1Nc1ncc(C(F)(F)F)c(Oc2cccc3c2C(=O)N(C)C3)n1 (stereo not shown) [Compound 66] | –
< 5 nM | > 2000 nM | 2.58 nM | < 10 nM | – | COc1cc(N2CCC3(CCN(C)CC3)CC2)ccc1Nc1ncc(C(F)(F)F)c(Oc2cccc3c2C(=O)N(C)C3)n1 [Compound 94] | –
– | > 2000 nM | 1.33 nM | < 10 nM | 2.22 nM | COc1cc(N2CC3(CCN(C)CC3)C2)ccc1Nc1ncc(C(F)(F)F)c(Oc2cccc3c2C(=O)N(C)C3C)n1 (stereo not shown) [Compound 100] | –
5 to 50 nM | > 2000 nM | 3.33 nM | < 10 nM | – | COc1cc(N2CC3(CCN(C)C3)OC2=O)c(F)cc1Nc1ncc(C(F)(F)F)c(Oc2cccc3c2C(=O)N(C)C3)n1 (stereo not shown) [Compound 64] | –
< 5 nM | > 2000 nM | 2.88 nM | < 10 nM | – | COc1cc(N2CC3(CCN(C)CC3)CC2=O)c(F)cc1Nc1ncc(C(F)(F)F)c(Oc2cccc3c2C(=O)N(C)C3)n1 [Compound 62] | –
< 5 nM | > 2000 nM | 2.63 nM | < 10 nM | – | COc1cc(N2CC3(CCN(C)CC3)C2)ccc1Nc1ncc([N+](=O)[O-])c(Oc2cccc3c2C(=O)N(C)C3)n1 [Compound 114] | –
– | – | 8.5 nM | 10 to 50 nM | 1.32 nM | COc1cc(C(=O)NC2CCC23CCN(C)CC3)c(F)cc1Nc1ncc(C(F)(F)F)c(Oc2cccc3c2C(=O)N(C)C3)n1 (stereo not shown) [Compound 21] | IC50 ([2]; numeric): > 10000 nM
– | > 2000 nM | 0.93 nM | < 10 nM | 0.66 nM | COc1cc(N2CC3(CCN(C)CC3)C2)ccc1Nc1ncc(Br)c(Oc2cccc3c2C(=O)N(C)C3)n1 [Compound 112] | –
– | > 2000 nM | 2.26 nM | < 10 nM | 4.86 nM | COc1cc(N2CC3(CCN(C)CC3)C2)ccc1Nc1ncc(C(F)(F)F)c(Oc2cccc3c2C(=O)N(C)C3(C)C)n1 [Compound 101] | –
– | – | 3.05 nM | < 10 nM | 0.83 nM | COc1cc(N2CCC3(CC2)CN(C)C3)ccc1Nc1ncc(C(F)(F)F)c(Oc2cccc3c2C(=O)N(C)C3)n1 [Compound 92] | IC50 ([2]; numeric): > 10000 nM
– | > 2000 nM | 86 nM | < 10 nM | 41.3 nM | COc1cc(C(=O)N2CC3(CCN(C)CC3)C2)c(F)cc1Nc1ncc(C(F)(F)F)c(Oc2cccc3c2C(=O)N(C)C3)n1 [Compound 34] | –
– | – | 1.86 nM | < 10 nM | 0.8 nM | COc1cc(N2CC3(CCN(C)CC3)C2)ccc1Nc1ncc(C(F)(F)F)c(Oc2cccc3c2C(=O)N(C)C3)n1 [Compound 90, 7-((2-((2-methoxy-4-(7-methyl-2,7-diazaspiro[3.5]non-2-yl)phenyl)amino)-5-(trifluoromethyl)pyrimidin-4-yl)oxy)-2-methylisoindolin-1-one] | Change in body weight [5]: −0.5%; TGI (%) [5]: 81.65%; Change in body weight [6]: +3.67%; TGI (%) [6]: 83.72%; oral bioavailability and oral absorption properties (in words) ([7]; oral 10 mg/kg): good oral bioavailability and good oral absorption properties; AUC(0-t) [7, 9]: 812 ng·h/mL; clearance [7, 9]: 20.5 mL/min/kg; half-life [7, 9]: 3.08 h; Vd [7, 9]: 5.34 L/kg; AUC(0-t) ([7]; oral administration 10 mg/kg): 7460 ng·h/mL; Cmax ([7]; oral administration 10 mg/kg): 635 ng/mL; Tmax ([7]; oral administration 10 mg/kg): 4 h; half-life ([7]; oral administration 10 mg/kg): 2.82 h; bioavailability [7]: 92%; IC50 ([2]; numeric): > 10000 nM; Change in body weight [8]: +13.54%; TGI (%) [8]: 59.02%
< 5 nM | > 2000 nM | 3.01 nM | < 10 nM | – | COc1cc(N2CC3(CCNCC3)C2)ccc1Nc1ncc(C(F)(F)F)c(Oc2cccc3c2C(=O)N(C)C3)n1 [Compound 102] | –
– | > 2000 nM | 3.56 nM | < 10 nM | 1.58 nM | COc1cc(N2CC3(CCN(C)CC3)C2)ccc1Nc1ncc(C#N)c(Oc2cccc3c2C(=O)N(C)C3)n1 [Compound 113] | –
< 5 nM | > 2000 nM | – | < 10 nM | – | COc1cc(C(=O)NC2CC3(CCN(C)CC3)C2)c(F)cc1Nc1ncc(C(F)(F)F)c(Oc2cccc3c2C(=O)N(C)C3C)n1 (stereo not shown) [Compound 70, 4-((4-((1,2-dimethyl-3-oxoisoindol-4-yl)oxy)-5-(trifluoromethyl)pyrimidin-2-yl)amino)-2-fluoro-5-methoxy-N-(7-methyl-7-azaspiro[3.5]nonan-2-yl)benzamide] | –
– | – | – | < 10 nM | 4.23 nM | COc1cc(C(=O)NC2CCC3(CC2)CN(C)C3)c(F)cc1Nc1ncc(C(F)(F)F)c(Oc2cccc3c2C(=O)N(C)C3)n1 [Compound 20] | AUC(0-t) ([7]; injection (IV) 2 mg/kg): 622 ng·h/mL; clearance ([7]; injection (IV) 2 mg/kg): 26.8 mL/min/kg; half-life ([7]; injection (IV) 2 mg/kg): 3.46 h; Vd ([7]; injection (IV) 2 mg/kg): 4.99 L/kg; AUC(0-t) ([7]; oral administration 10 mg/kg): 934 ng·h/mL; Cmax ([7]; oral administration 10 mg/kg): 190 ng/mL; Tmax ([7]; oral administration 10 mg/kg): 2 h; half-life ([7]; oral administration 10 mg/kg): 1.97 h; bioavailability [7]: 30%; IC50 ([2]; numeric): > 10000 nM
< 5 nM | > 2000 nM | – | < 10 nM | – | COc1cc(C(=O)NC2CC3(CCN(C)CC3)C2)c(F)cc1Nc1ncc(C(F)(F)F)c(Cc2cccc3c2C(=O)N(C)C3)n1 [Compound 49, 2-fluoro-5-methoxy-4-((4-((2-methyl-3-oxoisoindolin-4-yl)methyl)-5-(trifluoromethyl)pyrimidin-2-yl)amino)-N-(7-methyl-7-azaspiro[3.5]nonan-2-yl)benzamide] | –
– | > 2000 nM | 1.62 nM | < 10 nM | 1.78 nM | COc1cc(N2CC3(CCN(C)CC3)C2)ccc1Nc1ncc(Cl)c(Oc2cccc3c2C(=O)N(C)C3)n1 [Compound 111] | Change in body weight [5]: −1.4%; TGI (%) [5]: 87.4%; Change in body weight [6]: +6.08%; TGI (%) [6]: 82.32%; Change in body weight [8]: +21.07%; TGI (%) [8]: 47.67%
5 to 50 nM | > 2000 nM | – | < 10 nM | – | COc1cc(C(=O)NC2CCC3(CC2)CCN3C)c(F)cc1Nc1ncc(C(F)(F)F)c(Oc2ccccc2N(C)S(C)(=O)=O)n1 (stereo not shown) [Compound 18] | –
5 to 50 nM | > 2000 nM | – | < 10 nM | – | COc1cc(C(=O)NC2CC3(CCN(C)CC3)C2)c(F)cc1Nc1ncc(C(F)(F)F)c(Oc2cccc3c2C(=O)N(C)C3(C)C)n1 [Compound 76] | –
< 5 nM | > 2000 nM | – | < 10 nM | – | COc1cc(C(=O)NC2CCC3(CC2)CCN(C)C3)c(F)cc1Nc1ncc(C(F)(F)F)c(Oc2cccc3c2C(=O)N(C)C3)n1 (stereo not shown) [Compound 25] | –
